Test results published in PMC9329436, “Optimization of the 4-anilinoquin(az)oline scaffold as epidermal growth factor receptor (EGFR) inhibitors for chordoma utilizing a toxicology profiling assay platform” (Scientific Reports, 2022).
Read-outs that look alike come from different tables or passages of the source.

Experiments:
Type in all cases: biochemical
[1] = molecular target: 320 wild-type protein kinases (Homo sapiens, UniProt P08069); conditions: IGF1-R, singlicate
Description: (§1) Table S4. Profiling of two compounds at two concentrations against 320 wild-type protein kinases; singlicate measurement; Residual activities (% of control).

[2] = molecular target: T1, 320 wild-type protein kinases (Homo sapiens, UniProt P30530); conditions: AXL, singlicate
T1 sequence (P30530 26-894): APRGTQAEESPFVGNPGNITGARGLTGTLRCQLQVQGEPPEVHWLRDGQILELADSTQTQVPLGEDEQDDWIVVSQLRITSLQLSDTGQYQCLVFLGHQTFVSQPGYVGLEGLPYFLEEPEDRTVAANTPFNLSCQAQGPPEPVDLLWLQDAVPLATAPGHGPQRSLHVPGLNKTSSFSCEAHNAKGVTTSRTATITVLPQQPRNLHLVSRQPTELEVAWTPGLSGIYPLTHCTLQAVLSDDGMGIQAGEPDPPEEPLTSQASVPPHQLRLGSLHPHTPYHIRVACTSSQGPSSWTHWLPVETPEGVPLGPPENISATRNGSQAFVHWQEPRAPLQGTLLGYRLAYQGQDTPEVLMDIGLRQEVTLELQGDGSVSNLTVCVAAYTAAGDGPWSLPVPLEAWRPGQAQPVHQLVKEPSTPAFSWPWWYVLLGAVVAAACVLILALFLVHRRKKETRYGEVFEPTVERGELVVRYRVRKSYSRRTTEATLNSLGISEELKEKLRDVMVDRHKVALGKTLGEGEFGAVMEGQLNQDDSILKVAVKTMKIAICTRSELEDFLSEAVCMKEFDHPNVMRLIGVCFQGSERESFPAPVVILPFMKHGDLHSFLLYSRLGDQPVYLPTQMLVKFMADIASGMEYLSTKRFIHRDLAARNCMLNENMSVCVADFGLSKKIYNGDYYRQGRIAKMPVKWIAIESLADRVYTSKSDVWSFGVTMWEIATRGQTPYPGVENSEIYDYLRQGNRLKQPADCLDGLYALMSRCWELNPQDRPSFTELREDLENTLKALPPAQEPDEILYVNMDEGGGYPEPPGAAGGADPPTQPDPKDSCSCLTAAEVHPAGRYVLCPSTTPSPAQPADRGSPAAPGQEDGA
Description: as §1

[3] = molecular target: 320 wild-type protein kinases (Homo sapiens, UniProt P49761); conditions: singlicate
Description: as §1

[4] = molecular target: 320 wild-type protein kinases (Homo sapiens, UniProt P51617); conditions: singlicate
Description: as §1

[5] = molecular target: 320 wild-type protein kinases (Homo sapiens, UniProt P78368); conditions: singlicate
Description: as §1

[6] = molecular target: 320 wild-type protein kinases (Homo sapiens, UniProt Q02750); conditions: singlicate
Description: as §1

[7] = molecular target: T2, 320 wild-type protein kinases (Homo sapiens, UniProt Q8NE63); conditions: singlicate
T2 sequence (Q8NE63 1-616): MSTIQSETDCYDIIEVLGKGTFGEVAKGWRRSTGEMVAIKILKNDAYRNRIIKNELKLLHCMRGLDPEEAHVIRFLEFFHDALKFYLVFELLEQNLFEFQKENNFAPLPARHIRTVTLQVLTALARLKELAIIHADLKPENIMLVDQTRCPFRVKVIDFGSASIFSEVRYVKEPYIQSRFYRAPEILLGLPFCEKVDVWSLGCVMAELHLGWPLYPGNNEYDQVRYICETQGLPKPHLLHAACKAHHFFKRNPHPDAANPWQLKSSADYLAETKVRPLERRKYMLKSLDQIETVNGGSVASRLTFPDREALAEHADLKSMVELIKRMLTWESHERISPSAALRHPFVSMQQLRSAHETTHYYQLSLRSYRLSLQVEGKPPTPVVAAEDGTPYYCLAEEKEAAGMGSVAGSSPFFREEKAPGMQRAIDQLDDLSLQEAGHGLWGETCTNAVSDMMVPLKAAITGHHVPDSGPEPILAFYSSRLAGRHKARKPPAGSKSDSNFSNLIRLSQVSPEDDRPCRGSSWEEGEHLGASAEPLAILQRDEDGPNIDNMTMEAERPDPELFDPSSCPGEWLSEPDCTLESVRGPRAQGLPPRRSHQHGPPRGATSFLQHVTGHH
Description: as §1

[8] = molecular target: T3, 320 wild-type protein kinases (Homo sapiens, UniProt Q99640); conditions: singlicate
T3 sequence (Q99640 1-499): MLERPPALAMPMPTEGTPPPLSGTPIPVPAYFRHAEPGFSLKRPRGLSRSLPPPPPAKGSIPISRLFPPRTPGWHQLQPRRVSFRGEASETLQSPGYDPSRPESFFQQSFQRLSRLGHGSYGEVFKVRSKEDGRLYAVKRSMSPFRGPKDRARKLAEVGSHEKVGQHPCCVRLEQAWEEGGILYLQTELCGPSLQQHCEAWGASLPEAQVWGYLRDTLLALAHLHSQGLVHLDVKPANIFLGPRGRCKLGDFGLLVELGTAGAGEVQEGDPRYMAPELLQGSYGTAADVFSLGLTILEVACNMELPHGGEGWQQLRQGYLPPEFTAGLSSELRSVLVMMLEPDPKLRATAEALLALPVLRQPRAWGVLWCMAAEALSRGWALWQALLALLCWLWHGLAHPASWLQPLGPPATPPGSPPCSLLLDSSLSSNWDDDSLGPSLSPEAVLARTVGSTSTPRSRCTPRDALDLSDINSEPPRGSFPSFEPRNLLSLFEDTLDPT
Description: as §1

[9] = molecular target: 320 wild-type protein kinases (Homo sapiens, UniProt Q9H422); conditions: singlicate
Description: as §1

[10] = molecular target: 320 wild-type protein kinases (Homo sapiens, UniProt Q9NQU5); conditions: singlicate
Description: as §1

[11] = molecular target: 320 wild-type protein kinases (Homo sapiens, UniProt Q9P289); conditions: singlicate
Description: as §1

Chain of 320 wild-type protein kinases (Homo sapiens, UniProt Q9H422) (Q9H422 whole entry): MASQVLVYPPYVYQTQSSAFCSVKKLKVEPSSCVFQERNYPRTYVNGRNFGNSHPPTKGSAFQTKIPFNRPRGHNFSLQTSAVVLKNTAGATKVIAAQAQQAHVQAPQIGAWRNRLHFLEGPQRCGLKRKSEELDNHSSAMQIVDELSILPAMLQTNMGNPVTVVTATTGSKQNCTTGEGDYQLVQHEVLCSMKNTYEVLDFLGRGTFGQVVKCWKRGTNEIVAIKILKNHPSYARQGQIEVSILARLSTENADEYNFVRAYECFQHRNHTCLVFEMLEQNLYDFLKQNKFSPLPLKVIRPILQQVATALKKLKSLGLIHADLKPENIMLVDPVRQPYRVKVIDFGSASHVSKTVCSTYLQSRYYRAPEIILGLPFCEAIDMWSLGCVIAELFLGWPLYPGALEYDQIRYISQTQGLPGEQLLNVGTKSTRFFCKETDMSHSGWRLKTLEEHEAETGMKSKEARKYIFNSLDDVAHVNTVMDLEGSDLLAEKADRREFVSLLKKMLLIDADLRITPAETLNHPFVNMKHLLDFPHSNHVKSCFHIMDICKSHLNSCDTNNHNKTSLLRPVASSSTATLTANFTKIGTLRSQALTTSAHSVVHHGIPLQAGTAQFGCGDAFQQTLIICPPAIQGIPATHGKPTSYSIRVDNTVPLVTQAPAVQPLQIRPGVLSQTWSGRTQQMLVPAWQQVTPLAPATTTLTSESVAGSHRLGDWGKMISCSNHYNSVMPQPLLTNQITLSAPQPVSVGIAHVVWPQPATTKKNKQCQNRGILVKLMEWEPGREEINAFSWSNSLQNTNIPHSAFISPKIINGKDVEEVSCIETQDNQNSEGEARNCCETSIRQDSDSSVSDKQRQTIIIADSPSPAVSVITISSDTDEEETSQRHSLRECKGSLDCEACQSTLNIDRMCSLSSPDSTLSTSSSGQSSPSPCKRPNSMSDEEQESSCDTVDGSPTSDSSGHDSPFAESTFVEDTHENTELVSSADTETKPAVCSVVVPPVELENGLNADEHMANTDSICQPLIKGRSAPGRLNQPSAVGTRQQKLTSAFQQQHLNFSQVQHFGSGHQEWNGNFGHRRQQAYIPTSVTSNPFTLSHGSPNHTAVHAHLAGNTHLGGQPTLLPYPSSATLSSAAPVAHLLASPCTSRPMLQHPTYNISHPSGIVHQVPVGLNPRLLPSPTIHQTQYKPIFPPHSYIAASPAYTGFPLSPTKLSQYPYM
Chain of 320 wild-type protein kinases (Homo sapiens, UniProt Q9P289) (Q9P289 whole entry): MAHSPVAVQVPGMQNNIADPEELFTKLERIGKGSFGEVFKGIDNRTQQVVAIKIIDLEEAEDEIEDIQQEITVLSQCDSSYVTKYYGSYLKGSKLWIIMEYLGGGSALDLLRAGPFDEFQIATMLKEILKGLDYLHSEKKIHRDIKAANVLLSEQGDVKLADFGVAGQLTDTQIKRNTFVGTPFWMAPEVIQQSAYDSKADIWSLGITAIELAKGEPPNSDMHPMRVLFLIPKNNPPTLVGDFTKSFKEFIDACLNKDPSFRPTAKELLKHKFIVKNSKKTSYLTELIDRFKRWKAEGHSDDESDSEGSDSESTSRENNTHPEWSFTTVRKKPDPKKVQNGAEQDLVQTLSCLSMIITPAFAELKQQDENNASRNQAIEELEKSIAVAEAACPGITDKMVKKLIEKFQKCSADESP
Chain of 320 wild-type protein kinases (Homo sapiens, UniProt Q9NQU5) (Q9NQU5 whole entry): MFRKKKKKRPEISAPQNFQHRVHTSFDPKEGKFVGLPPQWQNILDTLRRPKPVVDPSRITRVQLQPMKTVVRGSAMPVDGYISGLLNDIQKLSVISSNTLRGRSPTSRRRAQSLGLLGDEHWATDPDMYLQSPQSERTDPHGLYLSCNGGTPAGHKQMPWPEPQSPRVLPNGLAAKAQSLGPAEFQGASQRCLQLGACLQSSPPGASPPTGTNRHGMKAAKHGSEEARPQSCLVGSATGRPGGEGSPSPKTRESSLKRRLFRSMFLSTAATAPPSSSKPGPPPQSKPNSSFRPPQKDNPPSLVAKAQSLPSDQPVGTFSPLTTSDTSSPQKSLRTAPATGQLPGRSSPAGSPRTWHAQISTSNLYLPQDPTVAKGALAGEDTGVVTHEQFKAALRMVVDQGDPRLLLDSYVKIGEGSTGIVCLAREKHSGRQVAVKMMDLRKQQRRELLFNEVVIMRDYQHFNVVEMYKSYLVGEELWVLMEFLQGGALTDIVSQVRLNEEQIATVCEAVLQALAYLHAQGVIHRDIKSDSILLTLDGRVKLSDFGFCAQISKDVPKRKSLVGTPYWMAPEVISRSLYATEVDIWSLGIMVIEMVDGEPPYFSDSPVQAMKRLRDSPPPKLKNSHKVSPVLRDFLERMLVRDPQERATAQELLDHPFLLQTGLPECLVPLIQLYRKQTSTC
Chain of 320 wild-type protein kinases (Homo sapiens, UniProt P78368) (P78368 whole entry): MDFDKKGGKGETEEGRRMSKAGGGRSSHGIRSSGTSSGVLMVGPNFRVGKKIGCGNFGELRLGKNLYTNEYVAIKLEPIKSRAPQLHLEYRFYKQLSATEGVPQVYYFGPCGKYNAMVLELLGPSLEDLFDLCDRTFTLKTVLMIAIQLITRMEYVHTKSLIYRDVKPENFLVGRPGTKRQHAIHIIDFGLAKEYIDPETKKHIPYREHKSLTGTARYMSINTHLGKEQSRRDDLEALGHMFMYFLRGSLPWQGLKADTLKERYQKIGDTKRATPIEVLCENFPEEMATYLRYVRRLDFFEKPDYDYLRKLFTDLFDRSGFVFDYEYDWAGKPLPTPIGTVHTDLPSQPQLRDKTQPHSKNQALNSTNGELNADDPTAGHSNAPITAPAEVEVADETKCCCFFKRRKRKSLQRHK
Chain of 320 wild-type protein kinases (Homo sapiens, UniProt Q02750) (Q02750 whole entry): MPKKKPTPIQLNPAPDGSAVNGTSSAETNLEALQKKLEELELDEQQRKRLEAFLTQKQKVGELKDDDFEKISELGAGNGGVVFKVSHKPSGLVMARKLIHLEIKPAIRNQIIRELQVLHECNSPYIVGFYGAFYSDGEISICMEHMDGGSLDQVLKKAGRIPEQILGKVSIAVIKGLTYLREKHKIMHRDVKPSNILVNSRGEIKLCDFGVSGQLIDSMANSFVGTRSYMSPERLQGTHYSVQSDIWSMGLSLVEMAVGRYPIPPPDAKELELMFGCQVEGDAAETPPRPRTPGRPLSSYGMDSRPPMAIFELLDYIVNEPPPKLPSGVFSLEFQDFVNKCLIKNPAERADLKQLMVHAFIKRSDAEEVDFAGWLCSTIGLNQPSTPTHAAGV
Chain of 320 wild-type protein kinases (Homo sapiens, UniProt P49761) (P49761 whole entry): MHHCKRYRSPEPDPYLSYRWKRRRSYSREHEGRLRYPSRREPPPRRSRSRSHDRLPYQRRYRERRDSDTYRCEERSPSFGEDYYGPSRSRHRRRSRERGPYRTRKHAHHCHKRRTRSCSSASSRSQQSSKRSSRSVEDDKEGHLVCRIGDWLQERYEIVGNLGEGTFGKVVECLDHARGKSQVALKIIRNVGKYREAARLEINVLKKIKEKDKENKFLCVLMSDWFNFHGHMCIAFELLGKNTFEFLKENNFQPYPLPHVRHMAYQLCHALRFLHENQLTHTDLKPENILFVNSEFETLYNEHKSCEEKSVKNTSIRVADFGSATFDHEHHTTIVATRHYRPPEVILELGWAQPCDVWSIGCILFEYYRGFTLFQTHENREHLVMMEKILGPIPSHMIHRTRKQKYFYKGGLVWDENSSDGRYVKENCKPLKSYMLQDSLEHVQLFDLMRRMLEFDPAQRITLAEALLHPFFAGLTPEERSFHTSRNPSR
Chain of 320 wild-type protein kinases (Homo sapiens, UniProt P51617) (P51617 whole entry): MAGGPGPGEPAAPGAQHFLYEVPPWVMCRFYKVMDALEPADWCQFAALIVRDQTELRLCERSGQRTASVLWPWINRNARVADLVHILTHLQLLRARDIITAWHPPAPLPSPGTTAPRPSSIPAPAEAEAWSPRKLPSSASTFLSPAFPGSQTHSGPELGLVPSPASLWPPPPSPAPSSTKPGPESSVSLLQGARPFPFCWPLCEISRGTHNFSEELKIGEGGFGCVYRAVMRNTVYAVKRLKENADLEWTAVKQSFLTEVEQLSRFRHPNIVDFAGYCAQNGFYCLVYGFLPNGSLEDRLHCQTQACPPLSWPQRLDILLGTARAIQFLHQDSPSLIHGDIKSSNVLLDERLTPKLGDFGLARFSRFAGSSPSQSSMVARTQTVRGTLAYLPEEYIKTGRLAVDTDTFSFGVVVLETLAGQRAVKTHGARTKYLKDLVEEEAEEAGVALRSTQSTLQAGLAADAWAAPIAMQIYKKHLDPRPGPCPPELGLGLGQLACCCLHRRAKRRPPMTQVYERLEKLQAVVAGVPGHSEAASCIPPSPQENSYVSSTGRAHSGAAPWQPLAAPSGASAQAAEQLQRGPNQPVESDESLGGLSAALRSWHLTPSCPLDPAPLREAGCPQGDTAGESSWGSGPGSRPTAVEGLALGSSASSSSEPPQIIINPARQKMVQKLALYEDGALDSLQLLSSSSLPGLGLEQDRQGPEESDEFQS

| Structure (SMILES) | Residual activity ([1]; 1.0E-06 M) | Residual activity ([1]; 1.0E-07 M) | Residual activity ([2]; 1.0E-06 M) | Residual activity ([2]; 1.0E-07 M) | Residual activity ([3]; CLK3, 1.0E-06 M) | Residual activity ([3]; CLK3, 1.0E-07 M) | Residual activity ([4]; IRAK1, 1.0E-06 M) | Residual activity ([4]; IRAK1, 1.0E-07 M) | Residual activity ([5]; CK1-gamma2, 1.0E-06 M) | Residual activity ([5]; CK1-gamma2, 1.0E-07 M) | Residual activity ([6]; MEK1, 1.0E-06 M) | Residual activity ([6]; MEK1, 1.0E-07 M) | Residual activity ([7]; HIPK4, 1.0E-06 M) | Residual activity ([7]; HIPK4, 1.0E-07 M) | Residual activity ([8]; PKMYT1, 1.0E-06 M) | Residual activity ([8]; PKMYT1, 1.0E-07 M) | Residual activity ([9]; HIPK3, 1.0E-06 M) | Residual activity ([9]; HIPK3, 1.0E-07 M) | Residual activity ([10]; PAK6, 1.0E-06 M) | Residual activity ([10]; PAK6, 1.0E-07 M) | other results |
| --- | --- | --- | --- | --- | --- | --- | --- | --- | --- | --- | --- | --- | --- | --- | --- | --- | --- | --- | --- | --- | --- |
| C#Cc1cc(Nc2ncnc3cc(I)ccc23)ccc1Cl [Compound 41] | 103 % of control | 109 % of control | 97 % of control | 116 % of control | 128 % of control | 146 % of control | 103 % of control | 109 % of control | 112 % of control | 119 % of control | 104 % of control | 109 % of control | 97 % of control | 104 % of control | 79 % of control | 88 % of control | 103 % of control | 98 % of control | 88 % of control | 97 % of control | Residual activity ([11]; MST4, 1.0E-06 M): 89 % of control; Residual activity ([11]; MST4, 1.0E-07 M): 101 % of control |
| C#Cc1cc(Nc2ncnc3cc(OC)c(OC)cc23)ccc1Cl [Compound 45] | 101 % of control | 122 % of control | 80 % of control | 103 % of control | 133 % of control | 127 % of control | 105 % of control | 109 % of control | 109 % of control | 111 % of control | 109 % of control | 105 % of control | 57 % of control | 98 % of control | 95 % of control | 114 % of control | 97 % of control | 102 % of control | 87 % of control | 98 % of control | Residual activity ([11]; MST4, 1.0E-06 M): 97 % of control; Residual activity ([11]; MST4, 1.0E-07 M): 92 % of control |
